Test system: plants
Experiment: Test D pre-emergence, other plants of Tables D1 and D3
Type: in vivo
Conditions: preemergent, 20 DAA
Procedure: A formulation containing 50 g/L of the test chemical was prepared by dissolving the active ingredient in a mixture of organic solvents and emulsifier, details of which are provided in the table. This formulation was then mixed with a small, variable amount of acetone to aid dissolution, before addition of a 0.2% v/v aqueous solution of an adjuvant, as the aqueous diluent, to form an aqueous spray solution which contains a predetermined concentration of the active ingredient.
This aqueous spray solution was then sprayed onto plants including maize and wheat that had been seed treated with a herbicide safener, after one day's cultivation (for pre-emergence) or after about 12 days' cultivation (for post-emergence). The plants were grown from seeds sown in standard soil, placed in a glasshouse under controlled conditions (at 24/18° C. or 20/16° C., day/night; 16 h light; 65% humidity). After spray application the plants were then grown in a glasshouse under the same conditions and watered twice daily. After 15 d for post-emergence and 20 DAA for pre-emergence the test was evaluated (100=total damage to plant; 0=no damage to plant).

## CN1CC(c2cc(C(F)(F)F)n(C)n2)C(C(=O)Nc2ccc(F)c(F)c2F)C1=O (racemic) [Compound 17]
Rate 15
  damage to plant (100=total damage to plant; 0=no damage to plant), ABUTH: 0
  damage to plant (100=total damage to plant; 0=no damage to plant), AMARE: 0
  damage to plant (100=total damage to plant; 0=no damage to plant), BIDPI: 0
  damage to plant (100=total damage to plant; 0=no damage to plant), BRAPL: 20
  damage to plant (100=total damage to plant; 0=no damage to plant), CYPES: 0
  damage to plant (100=total damage to plant; 0=no damage to plant), DIGSA: 30
  damage to plant (100=total damage to plant; 0=no damage to plant), ECHCG: 0
  damage to plant (100=total damage to plant; 0=no damage to plant), ELEIN: 0
  damage to plant (100=total damage to plant; 0=no damage to plant), EPHHL: 0
  damage to plant (100=total damage to plant; 0=no damage to plant), GLXMA: 0
  damage to plant (100=total damage to plant; 0=no damage to plant), IPOHE: 0
  damage to plant (100=total damage to plant; 0=no damage to plant), ORYSA: 0
  damage to plant (100=total damage to plant; 0=no damage to plant), PANMI: 0
  damage to plant (100=total damage to plant; 0=no damage to plant), SETFA: 0
  damage to plant (100=total damage to plant; 0=no damage to plant), SORVU: 0
Rate 30
  damage to plant (100=total damage to plant; 0=no damage to plant), ABUTH: 0
  damage to plant (100=total damage to plant; 0=no damage to plant), AMARE: 0
  damage to plant (100=total damage to plant; 0=no damage to plant), BIDPI: 0
  damage to plant (100=total damage to plant; 0=no damage to plant), BRAPL: 60
  damage to plant (100=total damage to plant; 0=no damage to plant), CYPES: 0
  damage to plant (100=total damage to plant; 0=no damage to plant), DIGSA: 90
  damage to plant (100=total damage to plant; 0=no damage to plant), ECHCG: 90
  damage to plant (100=total damage to plant; 0=no damage to plant), ELEIN: 0
  damage to plant (100=total damage to plant; 0=no damage to plant), EPHHL: 0
  damage to plant (100=total damage to plant; 0=no damage to plant), GLXMA: 0
  damage to plant (100=total damage to plant; 0=no damage to plant), IPOHE: 0
  damage to plant (100=total damage to plant; 0=no damage to plant), ORYSA: 0
  damage to plant (100=total damage to plant; 0=no damage to plant), PANMI: 0
  damage to plant (100=total damage to plant; 0=no damage to plant), SETFA: 80
  damage to plant (100=total damage to plant; 0=no damage to plant), SORVU: 0
Rate 60
  damage to plant (100=total damage to plant; 0=no damage to plant), ABUTH: 0
  damage to plant (100=total damage to plant; 0=no damage to plant), AMARE: 0
  damage to plant (100=total damage to plant; 0=no damage to plant), BIDPI: 0
  damage to plant (100=total damage to plant; 0=no damage to plant), BRAPL: 80
  damage to plant (100=total damage to plant; 0=no damage to plant), CYPES: 0
  damage to plant (100=total damage to plant; 0=no damage to plant), DIGSA: 90
  damage to plant (100=total damage to plant; 0=no damage to plant), ECHCG: 90
  damage to plant (100=total damage to plant; 0=no damage to plant), ELEIN: 0
  damage to plant (100=total damage to plant; 0=no damage to plant), EPHHL: 0
  damage to plant (100=total damage to plant; 0=no damage to plant), GLXMA: 0
  damage to plant (100=total damage to plant; 0=no damage to plant), IPOHE: 0
  damage to plant (100=total damage to plant; 0=no damage to plant), ORYSA: 0
  damage to plant (100=total damage to plant; 0=no damage to plant), PANMI: 0
  damage to plant (100=total damage to plant; 0=no damage to plant), SETFA: 90
  damage to plant (100=total damage to plant; 0=no damage to plant), SORVU: 0
Rate 130
  damage to plant (100=total damage to plant; 0=no damage to plant), ABUTH: 0
  damage to plant (100=total damage to plant; 0=no damage to plant), AMARE: 0
  damage to plant (100=total damage to plant; 0=no damage to plant), BIDPI: 0
  damage to plant (100=total damage to plant; 0=no damage to plant), BRAPL: 80
  damage to plant (100=total damage to plant; 0=no damage to plant), CYPES: 0
  damage to plant (100=total damage to plant; 0=no damage to plant), DIGSA: 90
  damage to plant (100=total damage to plant; 0=no damage to plant), ECHCG: 90
  damage to plant (100=total damage to plant; 0=no damage to plant), ELEIN: 0
  damage to plant (100=total damage to plant; 0=no damage to plant), EPHHL: 0
  damage to plant (100=total damage to plant; 0=no damage to plant), GLXMA: 0
  damage to plant (100=total damage to plant; 0=no damage to plant), IPOHE: 0
  damage to plant (100=total damage to plant; 0=no damage to plant), ORYSA: 0
  damage to plant (100=total damage to plant; 0=no damage to plant), PANMI: 0
  damage to plant (100=total damage to plant; 0=no damage to plant), SETFA: 90
  damage to plant (100=total damage to plant; 0=no damage to plant), SORVU: 0
Rate 250
  damage to plant (100=total damage to plant; 0=no damage to plant), ABUTH: 0
  damage to plant (100=total damage to plant; 0=no damage to plant), AMARE: 0
  damage to plant (100=total damage to plant; 0=no damage to plant), BIDPI: 0
  damage to plant (100=total damage to plant; 0=no damage to plant), BRAPL: 80
  damage to plant (100=total damage to plant; 0=no damage to plant), CYPES: 0
  damage to plant (100=total damage to plant; 0=no damage to plant), DIGSA: 90
  damage to plant (100=total damage to plant; 0=no damage to plant), ECHCG: 100
  damage to plant (100=total damage to plant; 0=no damage to plant), ELEIN: 0
  damage to plant (100=total damage to plant; 0=no damage to plant), EPHHL: 0
  damage to plant (100=total damage to plant; 0=no damage to plant), GLXMA: 0
  damage to plant (100=total damage to plant; 0=no damage to plant), IPOHE: 0
  damage to plant (100=total damage to plant; 0=no damage to plant), ORYSA: 0
  damage to plant (100=total damage to plant; 0=no damage to plant), PANMI: 0
  damage to plant (100=total damage to plant; 0=no damage to plant), SETFA: 90
  damage to plant (100=total damage to plant; 0=no damage to plant), SORVU: 0
Rate 500
  damage to plant (100=total damage to plant; 0=no damage to plant), ABUTH: 10
  damage to plant (100=total damage to plant; 0=no damage to plant), AMARE: 0
  damage to plant (100=total damage to plant; 0=no damage to plant), BIDPI: 0
  damage to plant (100=total damage to plant; 0=no damage to plant), BRAPL: 90
  damage to plant (100=total damage to plant; 0=no damage to plant), CYPES: 0
  damage to plant (100=total damage to plant; 0=no damage to plant), DIGSA: 90
  damage to plant (100=total damage to plant; 0=no damage to plant), ECHCG: 100
  damage to plant (100=total damage to plant; 0=no damage to plant), ELEIN: 0
  damage to plant (100=total damage to plant; 0=no damage to plant), EPHHL: 10
  damage to plant (100=total damage to plant; 0=no damage to plant), GLXMA: 0
  damage to plant (100=total damage to plant; 0=no damage to plant), IPOHE: 0
  damage to plant (100=total damage to plant; 0=no damage to plant), ORYSA: 0
  damage to plant (100=total damage to plant; 0=no damage to plant), PANMI: 0
  damage to plant (100=total damage to plant; 0=no damage to plant), SETFA: 90

— US20220281848A1, “PYRAZOLE-SUBSTITUTED PYRROLIDINONES AS HERBICIDES” (FMC Corporation, priority 2019, published 2022)
